Reference: ChEMBL document CHEMBL5252570, “Synthesis and biological evaluation of 2,5-disubstituted furan derivatives containing 1,3-thiazole moiety as potential α-glucosidase inhibitors” (Bioorg Med Chem Lett, 2023)
Calls of active or inactive are those of the source. The rule behind the calls is not given here.

Tests used:
Alpha glucosidase [1] = target: T1, Alpha glucosidase (Homo sapiens, UniProt O43451+P10253+P14410+Q2M2H8); assay: Inhibition of alpha glucosidase (unknown origin) at 50 uM relative to control; format: protein assay
Alpha glucosidase [2] = target: T1, Alpha glucosidase; assay: Inhibition of alpha glucosidase (unknown origin); format: protein assay
Alpha glucosidase [3] = target: T1, Alpha glucosidase; assay: Inhibition of alpha glucosidase (unknown origin) using p-nitrophenyl glucopyranoside as substrate pre incubated for 10 mins followed by substrate addition and measured after 30 mins by plate reader analysis; format: protein assay
Alpha glucosidase [4] = target: T1, Alpha glucosidase; assay: Potency index, […] for inhibition of alpha glucosidase (unknown origin); format: protein assay
[5] = Cytotoxicity against human HepG2 cells assessed as inhibition of cell growth at 100 uM by CCK-8 assay relative to control; format: toxicity, cell-based; conditions: read-out: Activity
[6] = Cytotoxicity against mouse RAW264.7 cells assessed as inhibition of cell growth at 100 uM by CCK-8 assay relative to control; format: toxicity, cell-based; conditions: read-out: Activity
Alpha glucosidase [7] = target: T1, Alpha glucosidase; assay: Non-competitive inhibition of alpha glucosidase (unknown origin) assessed as inhibition constant using pNPG as substrate by Dixon plot analysis; format: protein assay
[8] = Cytotoxicity against human HEK293 cells assessed as inhibition of cell growth at 100 uM by CCK-8 assay relative to control; format: toxicity, cell-based; conditions: read-out: Activity
Alpha glucosidase [9] = target: T1, Alpha glucosidase; assay: Competitive inhibition of alpha glucosidase (unknown origin) using pNPG as substrate by Lineweaver-Burk plot analysis; format: protein assay

| Structure (SMILES) | inhibition (Alpha glucosidase [1]) | IC50 (Alpha glucosidase [2]) | other results |
| --- | --- | --- | --- |
| O=C(Sc1nccs1)c1ccc(-c2ccccc2F)o1 | 83.6% | 5.97 µM | – |
| O=C(Nc1nccs1)c1ccc(-c2ccc(Br)cc2)o1 | 74% | 24.125 µM | – |
| COc1ccc(-c2ccc(C(=O)Nc3nccs3)o2)cc1 | 59% | 30.94 µM | – |
| O=C(Sc1nccs1)c1ccc(-c2ccc([N+](=O)[O-])cc2)o1 | 85.7% | 8.934 µM | – |
| O=C(Nn1c(-c2cc3ccccc3oc2=O)cs/c1=N\c1ccc(Cl)c(Cl)c1)c1ccccc1O | – | – | IC50 (Alpha glucosidase [3]): 0.12 µM |
| O=C(Sc1nccs1)c1ccc(-c2cccc(Cl)c2)o1 | 94.4% | 2.611 µM | – |
| O=C(Sc1nccs1)c1ccc(-c2ccccc2[N+](=O)[O-])o1 | 98.5% | 0.645 µM | Ratio IC50 (Alpha glucosidase [4]): 701; inhibition at 100 µM [5]: 47.2%; inhibition at 100 µM [6]: 38.1%; Ki (Alpha glucosidase [7]): 2.04 µM; inhibition at 100 µM [8]: 53.4% |
| C[C@H]1O[C@H](O[C@H]2[C@H](O)[C@@H](O)[C@@H](O[C@H]3[C@H](O)[C@@H](O)C(O)O[C@@H]3CO)O[C@@H]2CO)[C@H](O)[C@@H](O)[C@@H]1N[C@H]1C=C(CO)[C@@H](O)[C@H](O)[C@H]1O (stereo not given in full) | 11.5% | – | inhibition (Alpha glucosidase [9]): Active |
| O=C(Sc1nccs1)c1ccc(-c2ccc(F)cc2)o1 | 43.4% | – | – |
| O=C(Nc1nccs1)c1ccc(-c2cccc(F)c2)o1 | 88.1% | 6.227 µM | – |
| COc1ccc(-c2ccc(C(=O)Sc3nccs3)o2)cc1 | 78.6% | 14.945 µM | – |
| Cc1ccc(-c2ccc(C(=O)Sc3nccs3)o2)cc1 | 80.4% | 11.43 µM | – |
| N#C/N=c1\sccn1C(=O)c1ccc(-c2cccc(Cl)c2)o1 | – | 1.2 µM | – |
| CC(C)(C)c1cc(/C=N/Nc2nc(-c3ccc(Cl)cc3)cs2)cc(C(C)(C)C)c1O | – | – | IC50 (Alpha glucosidase [3]): 18.23 µM |
| O=C(Nc1nccs1)c1ccc(-c2ccc(F)cc2F)o1 | 34.1% | 77.99 µM | – |
| O=C(Sc1nncs1)c1ccc(-c2ccc(Cl)cc2)o1 | – | 0.186 µM | – |
| O=C(Nc1nccs1)c1ccc(-c2ccc(Cl)cc2)o1 | 69.1% | 14.769 µM | – |
| O=C(Sc1nccs1)c1ccc(-c2ccc(Br)cc2)o1 | 89.9% | 5.283 µM | – |

| Structure (SMILES) | inhibition (Alpha glucosidase [1]) | IC50 (Alpha glucosidase [2]) | other results |
| --- | --- | --- | --- |
| O=C(Nc1nccs1)c1ccc(-c2c(F)cccc2F)o1 | 21.6% | 148.2 µM | – |
| O=C(Sc1nccs1)c1ccc(-c2cccc([N+](=O)[O-])c2)o1 | 20.2% | – | – |
| O=C(Nc1nccs1)c1ccc(-c2cccc([N+](=O)[O-])c2)o1 | 89.3% | 4.12 µM | inhibition at 100 µM [5]: 13.7%; inhibition at 100 µM [6]: 16.4%; Ki (Alpha glucosidase [7]): 367.24 µM; inhibition (Alpha glucosidase [9]): Active; inhibition at 100 µM [8]: 28.4% |
| O=C(Sc1nccs1)c1ccc(-c2cccc(F)c2)o1 | 87% | 5.392 µM | – |
| O=C(Nc1nccs1)c1ccc(-c2ccccc2F)o1 | 87.6% | 19.763 µM | – |
| O=C(Nc1nccs1)c1ccc(-c2ccccc2)o1 | 27.3% | 94.033 µM | – |
| O=C(Nc1nccs1)c1ccc(-c2ccccc2Cl)o1 | 59.3% | 18.33 µM | – |
| O=C(Nc1nccs1)c1ccc(-c2cccc(Cl)c2)o1 | 88.4% | 5.871 µM | – |
| O=C(Sc1nccs1)c1ccc(-c2c(F)cccc2F)o1 | 83.6% | 8.436 µM | – |
| O=C(Sc1nccs1)c1ccc(-c2ccc(F)cc2F)o1 | 86.1% | 6.935 µM | – |
| Cc1nnc(SC(=O)c2ccc(-c3cccc(F)c3)o2)s1 | – | 0.082 µM | – |
| O=C(Nc1nccs1)c1ccc(-c2ccc([N+](=O)[O-])cc2)o1 | 91.5% | 4.987 µM | – |
| O=C(Nc1nccs1)c1ccc(-c2ccc(F)cc2)o1 | 67.4% | 20.717 µM | – |
| O=C(Sc1nccs1)c1ccc(-c2ccccc2Cl)o1 | 88.2% | 1.935 µM | – |
| Cc1ccc(-c2ccc(C(=O)Nc3nccs3)o2)cc1 | 64.6% | 26.495 µM | – |
| O=C(Nc1nccs1)c1ccc(-c2ccccc2[N+](=O)[O-])o1 | 87.7% | 26.943 µM | – |
| O=C(Sc1nccs1)c1ccc(-c2ccc(Cl)cc2)o1 | 84.2% | 4.562 µM | – |
| O=C(Sc1nccs1)c1ccc(-c2ccccc2)o1 | 100% | 2.223 µM | – |
